Values after ≈ are worked out from the molar mass of the structure shown.
Key:
Assay type in all cases: functional
Salmonella enterica [1] = experiment: Tested in vitro for the minimum inhibitory concentration (MIC) against Salmonella choleraesuis
Salmonella enterica [2] = experiment: Tested in vivo for the antibacterial activity against Salmonella choleraesuis after oral administration of 25 mg/kg in mice
Streptococcus pyogenes = experiment: Tested in vitro for the minimum inhibitory concentration (MIC) against Strep. pyogenes
Pasteurella multocida [3] = experiment: Tested in vitro for the minimum inhibitory concentration (MIC) against Pasteurella multocida
Escherichia coli [4] = experiment: Tested in vitro for the minimum inhibitory concentration (MIC) against Escherichia coli
Salmonella enterica [5] = experiment: Tested in vivo for the antibacterial activity against Salmonella choleraesuis after sc administration of 25 mg/kg in mice; settings: route subcutaneous
Escherichia coli [6] = experiment: Tested in vivo for the antibacterial activity against Escherichia coli after sc administration in mice; settings: read-out: PD50
Pasteurella multocida [7] = experiment: Tested in vivo for the antibacterial activity against Pasteurella multocida after sc administration in mice; settings: read-out: PD50
Salmonella enterica [8] = experiment: Tested in vivo for the antibacterial activity against Salmonella choleraesuis after sc administration in mice; settings: read-out: PD50
Salmonella enterica [9] = experiment: Tested in vivo for the antibacterial activity against Salmonella choleraesuis after oral administration in mice; settings: read-out: PD50
Escherichia coli [10] = experiment: Tested in vivo for the antibacterial activity against Escherichia coli after oral administration in mice; settings: read-out: PD50
Pasteurella multocida [11] = experiment: Tested in vivo for the antibacterial activity against Pasteurella multocida after oral administration in mice; settings: read-out: PD50

| Structure (SMILES) | MIC (Salmonella enterica [1]) | Protection (Salmonella enterica [2]) | MIC (Streptococcus pyogenes) | MIC (Pasteurella multocida [3]) | MIC (Escherichia coli [4]) | Protection (Salmonella enterica [5]) | ED50 (Escherichia coli [6]) | ED50 (Pasteurella multocida [7]) | ED50 (Salmonella enterica [8]) | ED50 (Salmonella enterica [9]) | ED50 (Escherichia coli [10]) | ED50 (Pasteurella multocida [11]) |
| --- | --- | --- | --- | --- | --- | --- | --- | --- | --- | --- | --- | --- |
| O=C1c2c([n+]([O-])c3ccccc3[n+]2[O-])CCN1CCN1CCCCC1 | 1.56 µg/mL (≈ 4.56 µM) | 0% | < 0.39 µg/mL | 25 µg/mL (≈ 73 µM) | 3.12 µg/mL (≈ 9.11 µM) | 30% |  |  |  |  |  |  |
| C=CCN1CCc2c([n+]([O-])c3ccccc3[n+]2[O-])C1=O | 1.56 µg/mL (≈ 5.75 µM) | 0% | 0.78 µg/mL (≈ 2.88 µM) | 6.25 µg/mL (≈ 23 µM) | 3.12 µg/mL (≈ 11.5 µM) | 30% |  |  |  |  |  |  |
| COC(=O)N/N=C/c1c[n+]([O-])c2ccccc2[n+]1[O-] [CARBADOX] | 0.19 µg/mL (≈ 0.725 µM) | 100% | 0.19 µg/mL (≈ 0.725 µM) | 0.78 µg/mL (≈ 2.97 µM) | 0.39 µg/mL (≈ 1.49 µM) | 100% | 6.44 mg/kg | 4.05 mg/kg | 5.44 mg/kg | 4.47 mg/kg | 5.3 mg/kg | 6.14 mg/kg |
| COCCN1CCc2c([n+]([O-])c3ccccc3[n+]2[O-])C1=O | 3.12 µg/mL (≈ 10.8 µM) | 60% | 0.78 µg/mL (≈ 2.7 µM) | 3.12 µg/mL (≈ 10.8 µM) | 1.56 µg/mL (≈ 5.39 µM) | 90% |  |  |  |  |  |  |
| O=C1c2c([n+]([O-])c3ccccc3[n+]2[O-])CCN1C1CCCCC1 | 50 µg/mL (≈ 160 µM) | 0% | 3.12 µg/mL (≈ 9.96 µM) | 25 µg/mL (≈ 79.8 µM) | 50 µg/mL (≈ 160 µM) | 0% |  |  |  |  |  |  |
| O=C1NCCc2c1[n+]([O-])c1ccccc1[n+]2[O-] | 1.56 µg/mL (≈ 6.75 µM) | 0% | 1.56 µg/mL (≈ 6.75 µM) | < 0.39 µg/mL | 1.56 µg/mL (≈ 6.75 µM) | 80% |  |  |  |  |  |  |
| CCN1CCc2c([n+]([O-])c3ccccc3[n+]2[O-])C1=O | 1.56 µg/mL (≈ 6.02 µM) | 50% | 1.56 µg/mL (≈ 6.02 µM) | 6.25 µg/mL (≈ 24.1 µM) | 3.12 µg/mL (≈ 12 µM) | 70% |  |  |  |  |  |  |
| CN1CCc2c([n+]([O-])c3ccccc3[n+]2[O-])C1=O | 1.56 µg/mL (≈ 6.36 µM) | 100% | 1.56 µg/mL (≈ 6.36 µM) | 1.56 µg/mL (≈ 6.36 µM) | 0.78 µg/mL (≈ 3.18 µM) | 100% | 6.39 mg/kg | 3.8 mg/kg | 2.96 mg/kg | 5.1 mg/kg | 8.53 mg/kg | 4.7 mg/kg |
| O=C1c2c([n+]([O-])c3ccccc3[n+]2[O-])CCN1CCO | 12.5 µg/mL (≈ 45.4 µM) | 0% | 6.25 µg/mL (≈ 22.7 µM) | 12.5 µg/mL (≈ 45.4 µM) | 12.5 µg/mL (≈ 45.4 µM) | 0% |  |  |  |  |  |  |

— ChEMBL document CHEMBL1122100, “Pyridoquinoxaline N-oxides. 2. Synthesis and antibacterial activity of tricyclic lactams” (1982)
